Here are results for eight compounds from patent publication US20240376085A1 (Janssen Pharmaceutica NV, priority 2021, published 2024).

Test [1] has as its target T1, IL-17A : IL-17RA binding (Homo sapiens, UniProt Q16552, K93Q).
T1 construct: Name: IL-17A-Flag
Put plainly: IL-17A(FLAG-tagged):IL-17RA(His-tagged) binding disruption Eu-HTRF assay, Protocol 1. The following applies: FLAG-IL-17A 2.5 nM at 2x final concentration; average if tested more than once. In outline:
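IC50 came from a one-site competition fit of the acceptor/donor (665/620 nm) HTRF ratio. His-tagged IL-17RA, Eu-anti-FLAG and D2-anti-His were added after a 1 h rt compound preincubation with FLAG-tagged IL-17A dimer in PBS/0.01% Triton X-100, followed by 2 h at rt before reading.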

In test [2] the test system is IL-17A-induced G-CSF production in human normal keratinocyte (NHK). Put plainly: NHK assay: IL-17A-induced G-CSF production in normal human keratinocytes. The following applies: Homo sapiens, Keratinocyte, 24 h, IL-17A 5 ng/mL, average if tested more than once. Format: cell-based. In outline:
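Compound titrations are first mixed with recombinant human IL-17A for 1 h at room temperature. The mixture goes onto adult normal human keratinocytes (final IL-17A 5 ng/mL, 5% FBS, 0.2% DMSO) for 24 h at 37 °C. Secreted G-CSF is then measured by HTRF and IC50 fitted.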

T1 sequence (Q16552 with tags, fused parts or gaps K93Q): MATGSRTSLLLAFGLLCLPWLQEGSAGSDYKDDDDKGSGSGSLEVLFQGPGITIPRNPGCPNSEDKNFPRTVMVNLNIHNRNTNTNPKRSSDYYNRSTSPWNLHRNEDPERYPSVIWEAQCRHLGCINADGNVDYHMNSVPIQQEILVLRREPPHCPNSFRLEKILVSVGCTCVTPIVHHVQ

Take `C[C@@H](NC(=O)CCC(F)(F)F)c1ccc2[nH]c(C(CC(C)(C)C(F)(F)F)NC(=O)c3cnn(CC4CC4)n3)nc2c1` (single isomer, unassigned) [Example 191, 2-(Cyclopropylmethyl)-N—((R*)-4,4,4-trifluoro-3,3-dimethyl-1-(5-((R)-1-(4,4,4-trifluorobutanamido)ethyl)-1H-benzo[d]imidazol-2-yl)butyl)-2H-1,2,3-triazole-4-carboxamide]: the IC50 in test [1] and in test [2] was more than 100 nM each time.

For `CC(C)(C[C@H](NC(=O)c1nonc1C1CC1)c1nc2ccc([C@H](NC(=O)CCC(F)F)C3CC3)cc2[nH]1)C(F)(F)F` [Example 185, 4-Cyclopropyl-N—((S)-1-(6-((R)-cyclopropyl(4,4-difluorobutanamido)methyl)-1H-benzo[d]imidazol-2-yl)-4,4,4-trifluoro-3,3-dimethylbutyl)-1,2,5-oxadiazole-3-carboxamide], the IC50 in test [1] was less than 50 nM; in test [2], more than 100 nM.

For the compound `O=C(CC1CC(F)(F)C1)N[C@@H](c1ccc2nc([C@@H](NC(=O)c3nonc3C3CC3)[C@@H]3C[C@@H]4[C@H](C3)C4(F)F)[nH]c2c1)C1CC1` [Example 239, 4-Cyclopropyl-N—((S)-(6-((R)-cyclopropyl(2-(3,3-difluorocyclobutyl)acetamido)methyl)-1H-benzo[d]imidazol-2-yl)((1R,3s,5S)-6,6-difluorobicyclo[3.1.0]hexan-3-yl)methyl)-1,2,5-oxadiazole-3-carboxamide], the IC50 in test [1] and in test [2] was less than 50 nM each time.

For `C[C@@H](NC(=O)CCC(F)(F)F)c1ccc2[nH]c([C@@H](NC(=O)c3cnnn3CC(F)(F)F)C3CCC(F)(F)CC3)nc2c1` [Example 23, N—[(S)-(4,4-Difluorocyclohexyl)-[6-[(1R)-1-(4,4,4-trifluorobutanoylamino)ethyl]-1H-benzimidazol-2-yl]methyl]-3-(2,2,2-trifluoroethyl)triazole-4-carboxamide], the 50% inhibitory concentration (IC50) in test [1] and in test [2] was more than 100 nM each time.

Take `Cc1n[nH]cc1C(=O)N[C@H](c1nc2cc([C@@H](C)NC(=O)CCC(F)(F)F)ccc2[nH]1)C1CCC(F)(F)CC1` [Example 25, N—[(S)-(4,4-Difluorocyclohexyl)-[6-[(1R)-1-(4,4,4-trifluorobutanoylamino)ethyl]-1H-benzimidazol-2-yl]methyl]-3-methyl-1H-pyrazole-4-carboxamide]: the IC50 in test [1] and in test [2] was more than 100 nM each time.

In the case of `CC(C)n1nccc1C(=O)N[C@H](c1nc2cc([C@H](NC(=O)CC3CC(F)(F)C3)C3CC3)ccc2[nH]1)C1CCC(F)(F)CC1` [Example 142, N—((S)-(5-((R)-Cyclopropyl(2-(3,3-difluorocyclobutyl)acetamido)methyl)-1H-benzo[d]imidazol-2-yl)(4,4-difluorocyclohexyl)methyl)-1-isopropyl-1H-pyrazole-5-carboxamide], the half-maximal inhibitory concentration (IC50) was 50 to 100 nM in test [1] and less than 50 nM in test [2].

With `C[C@@H](NC(=O)CCC(F)(F)F)c1ccc2[nH]c([C@@H](NC(=O)[C@H]3C[C@H]3F)C3CCC(F)(F)CC3)nc2c1` [Example 99, (1R,2R)—N—((S)-(4,4-Difluorocyclohexyl)(5-((R)-1-(4,4,4-trifluorobutanamido)ethyl)-1H-benzo[d]imidazol-2-yl)methyl)-2-fluorocyclopropane-1-carboxamide], the IC50 in test [1] and in test [2] was more than 100 nM each time.

As to `CC(C)n1ncnc1C(=O)NC(CC(C)(C)C(F)(F)F)c1nc2cc([C@@H](C)NC(=O)CCC(F)(F)F)ccc2[nH]1` (single isomer, unassigned) [Example 196, 1-Isopropyl-N—((S*)-4,4,4-trifluoro-3,3-dimethyl-1-(5-((R)-1-(4,4,4-trifluorobutanamido)ethyl)-1H-benzo[d]imidazol-2-yl)butyl)-1H-1,2,4-triazole-5-carboxamide], the IC50 in test [1] and in test [2] was more than 100 nM in each case.

One may read the IC50 as the point on the concentration scale where inhibition reaches its midpoint. Read a low IC50 as inhibition by little substance.
